The record followed here is patent US20040170622A1, “Methods and compositions for modulating XBP-1 activity” (President and Fellows of Harvard College, priority 2002, published 2004).

What all share (assay type): cell-based
Experiment [1] relates to XBP-1u and XBP-1s proteins. In words: XBP-1u and XBP-1s protein levels in J558 cells (Western blot). The settings on record: J558 cells, 16 hrs. How it is done:
(§1) (A) BiP and CHOP induction was examined by northern blot analysis after treating NIH3T3 or J558 myeloma cells with either MG-132 (20 μM), Tm (10 μg/ml) or both. Cells were pretreated with MG-132 for 1 hr and then further treated with Tm for 4 hrs. Ethidium bromide staining of the gel is shown at the bottom. (B) Inhibition of caspase-12 processing by proteasome inhibitors. Processing of full-length caspase-12 was examined by Western blotting in J558 myeloma cells treated with thapsigargin (1 μM) or PIs (20 μM) during the indicated time periods. (C) Alteration in the ratio of XBP-1 protein species in J558 cells were treated with increasing amounts of MG-132 for 16 hrs. Cells undergoing apoptosis were counted by Annexin V staining. (D) Time course of the XBP-1s to XBP-1u shift. Cells were treated with MG-132 (1 μM) for the indicated times and XBP-1u and spliced protein levels and cell death determined. (E) Alteration in the ratio of XBP-1 species in the MM.1s human myeloma line. Cells were treated with PS-341 (8 nM) in a time course analysis and XBP-1 protein species quantified.
Cells were lysed in RIPA buffer (50 mM Tris pH 7.4, 150 mM NaCl, 1 mM EDTA, 1% Triton X-100, 1% sodium deoxycholate, 0.1% SDS) and lysates subjected to SDS-PAGE and transferred to Hybond P membrane (Amersham-Pharmacia, Piscataway, N.J.). […] HeLa cells were cotransfected with XBP-1u and His-tagged ubiquitin expression plasmids (pMT 107, D. Bohmann, EMBL, Germany) by using the Lipofectamine-2000 reagent (Invitrogen, Carlsbad, Calif.). […] Degradation rates of XBP-1u and XBP-1s proteins were determined by pulse labeling J558 cells with ^35S Met/Cys for 1 hr and chasing for the indicated times.
(Immunoblotting shows a protein as a band on a membrane.)

The next experiment deals with XBP-1s and XBP-1u. In words: Ratio of XBP-1 species in MM.1s line and primary MM cells. The settings on record: human MM cell line MM.1s and primary MM cells from patient bone marrow. Here is the method: as §1
The subject of experiment [2] is IRE1α-mediated XBP-1 mRNA splicing. In words: XBP-1 mRNA level and splicing in J558 cells (Northern blot, RT-PCR). The settings on record: J558, Tm 4 hrs; MG-132 10 μM, PS-341 10 μM, ZL3VS 50 μM, AdaAhxL3VS 50 μM. How it is done:
(A) XBP-1 mRNA levels in ER stressed J558 cells treated with Tm for 4 hrs in the absence or presence of MG-132. Cells were pretreated with MG-132 for 1 hr before adding Tm. XBP-1 mRNA levels were determined by Northern blot analysis. […] (C) Effect of a panel of PIs on XBP-1 splicing. Cells were treated with Tm for 4 hrs in the absence or presence of MG-132 (10 μM), PS-341 (10 μM), Lactacystin (10 μM), ZL3VS (50 μM) or AdaAhxL3VS (50 μM), and XBP-1 mRNA splicing measured by RT-PCR analysis. (D) IRE-1α phosphorylation in NIH3T3 cells were treated with Tm as indicated after 2 hrs of pretreatment with MG-132 (10 μM).
Total RNA was prepared by using Trizol reagent, electrophoresed on 1.2% agarose, 6% formaldehyde gels and then transferred onto Genescreen Plus membrane, (NEN, Boston, Mass.). […] Probes for ERdj4 and p58^IPK were generated from cDNA excised from EST clones (ATCC, Manassas, Va.) using appropriate restriction enzymes (ERdj4, IMAGE: 1920927; p58^IPK, IMAGE:2646147).

A further experiment concerns J558 myeloma cells. In words: Apoptosis of J558 myeloma cells (Annexin V staining). The conditions noted are these: agent alone. How it is done:
as §1
(A) Synergistic effect of Tm and MG-132 on apoptosis. Annexin V positive cells were counted after treating J558 cells for 18 hrs with suboptimal concentrations of Tm and MG-132 as indicated. (B) J558-iXBP cells were generated by retroviral transduction of J558 cells with the U6 promoter based XBP-1 RNAi vector. (C) XBP-1 dependent gene expression in J558 cells that express control GFP, dn-XBP or iXBP-1 treated with Tm. Generation of dn-XBP-1 J558 cells by infection with a retrovirus containing dn-XBP cDNA inserted into the GFP-RV vector (N. N. lwakoshi et al., Nature Immunology 4, 321-329 (2003)). ERdj4, p58^IPK, BiP and CHOP gene expression were examined by Northern blot analysis. (D) Increased apoptosis in iXBP-1 and dn-XBP-1 expressing J558 cells. Cells were treated with the indicated amounts of Tm for 48 hrs and dead cells counted after Annexin V staining.
Cells were stained with annexin V-PE (BD PharMingen, San Jose, Calif.) as recommended and analyzed on a FACScan flow cytometer (Becton Dickinson, San Jose, Calif.).

The next experiment concerns XBP-1 protein. In words: XBP-1 protein species in MOPC315 and MM.1S myeloma cells treated with proteasome inhibitors (Western blot). The settings on record: mouse myeloma MOPC315 and human myeloma MM.1S. Here is the method:
A variety of reversible and irreversible inhibitors that inhibit degradation of proteins by the ubiquitin-proteasome pathway have recently been identified. Proteasome inhibitors MG132 and PS341 block the rapid degradation of ubiquitinated proteins such as unspliced, but not spliced XBP-1. Myeloma cells express primarily spliced XBP-1 protein as expected. […] In this experiment lysates from MOPC315 cells were untreated or treated for 6 hours with 5 ug/ml of tunicamycin or 20 uM of MG-132 and were analyzed for the presence of XBP-1 using XBP-1 antibody. The two forms of XBP-1 were distinguished by their molecular weight.
In the presence of proteasome inhibitors, unspliced XBP-1 protein accumulates in the cell and is present at higher levels than the spliced protein. Lysates from Mm. 1S cells were untreated or treated for 1, 4, or 8 hours with 20 uM of PS-341 and were analyzed by western blotting with anti-XBP-1 antibody. Because unspliced, but not spliced XBP-1 is stabilized, the ratio of unspliced to spliced XBP-1 increases in cells treated with proteasome inhibitors.

For the molecule `CC(C)C[C@H](NC(=O)[C@H](Cc1ccccc1)NC(=O)c1cnccn1)B(O)O` [PS-341], the “XBP-1u accumulation and XBP-1s decrease” value in experiment [1] is “striking accumulation of XBP-1 u and a concomitant decrease in XBP-1s proteins”. The “shift in the ratio of XBP-1s to XBP-1u” value in the experiment on XBP-1s and XBP-1u is “induced the same marked shift in the ratio of XBP-1s to XBP-1u”. Also, the “effect on Tm-induced XBP-1 mRNA splicing” value in experiment [2] is given as “suppressed XBP-1 mRNA splicing as efficiently as MG-132”. The “apoptosis in J558 cells” value in the experiment on J558 myeloma cells is reported as “induced apoptosis in J558 cells”. Besides, in the experiment on XBP-1 protein, the “amount of unspliced XBP-1 protein” value is recorded as “dramatic increase in the amount of unspliced XBP-1 protein” and the “levels of active spliced XBP-1 protein” value is on record as “concomitant decrease in levels of the active spliced XBP-1 protein”.
